Earlier results, collected in patent publication US20250152701A1, “NKT CELL LIGAND-CONTAINING LIPOSOME COMPOSITION” (RIKEN, priority 2022, published 2025).

Settings: Non Patent Literature 6

Structure (SMILES): CCCCCCCCCCCCCCCCCCCCCCCCCC(=O)N[C@@H](CO[C@H]1OC(CO)[C@H](O)C(O)C1O)[C@H](O)[C@H](O)CCCCCCCCCCCCCC (stereo partly shown) [KRN7000]
- anti-tumor activity: extremely strong anti-tumor activity
